As usually defined, the EC50 is the concentration that produces a half-maximal response. Read a high EC50 as a need for much substance.

This is an account of results in patent publication US11773094B2, “Farnesoid X receptor agonists and uses thereof” (Metacrine, Inc., priority 2018, dated 2023).

For the assay, the target named is T1, hFXR (Homo sapiens, UniProt Q96RI1).
T1 construct: expressed in transfected cells; host or cells: CV-1 cells
T1 sequence (Q96RI1 1-486): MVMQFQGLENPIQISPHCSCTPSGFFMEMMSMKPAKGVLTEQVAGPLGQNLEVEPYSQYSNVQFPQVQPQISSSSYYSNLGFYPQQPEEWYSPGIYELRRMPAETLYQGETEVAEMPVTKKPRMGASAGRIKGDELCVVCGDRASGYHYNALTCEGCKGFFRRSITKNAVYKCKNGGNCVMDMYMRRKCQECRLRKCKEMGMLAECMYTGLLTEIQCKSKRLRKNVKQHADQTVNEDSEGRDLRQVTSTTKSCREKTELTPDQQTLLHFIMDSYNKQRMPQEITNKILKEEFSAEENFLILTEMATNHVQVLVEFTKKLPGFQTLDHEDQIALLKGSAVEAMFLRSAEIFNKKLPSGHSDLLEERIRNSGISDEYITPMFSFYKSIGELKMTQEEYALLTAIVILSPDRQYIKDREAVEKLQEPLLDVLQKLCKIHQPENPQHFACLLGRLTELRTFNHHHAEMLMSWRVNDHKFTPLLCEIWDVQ
T1 sequence (P19793 1-462 partner): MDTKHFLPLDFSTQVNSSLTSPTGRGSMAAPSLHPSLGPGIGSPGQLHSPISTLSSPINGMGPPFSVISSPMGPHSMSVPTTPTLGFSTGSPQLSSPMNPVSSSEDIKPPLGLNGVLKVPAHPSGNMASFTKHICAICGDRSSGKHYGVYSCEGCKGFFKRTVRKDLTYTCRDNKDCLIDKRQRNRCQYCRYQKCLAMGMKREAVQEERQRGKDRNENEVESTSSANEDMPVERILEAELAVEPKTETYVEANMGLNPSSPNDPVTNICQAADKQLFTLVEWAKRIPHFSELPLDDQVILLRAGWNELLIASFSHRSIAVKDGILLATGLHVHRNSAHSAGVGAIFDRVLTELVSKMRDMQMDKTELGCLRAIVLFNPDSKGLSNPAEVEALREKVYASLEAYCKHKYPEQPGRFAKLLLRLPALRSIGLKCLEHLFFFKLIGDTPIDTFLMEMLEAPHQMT
Nature of the assay: In Vitro FXR Assay (TK): TK-ECRE-luc reporter in transfected CV-1 cells. As to conditions: CV-1 cells transfected with hFXR, hRXR, pCMX-YFP, 18 hrs incubation, luminescence. Format: cell-based. In outline:
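Luminescence from a TK-ECRE-luc reporter was read after 18 h of compound exposure in CV-1 cells. These cells were grown in charcoal-stripped FBS medium and transiently transfected with hFXR, hRXR and YFP expression plasmids.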

In turn, `COc1ccc(C23CCC(CN(c4cc(-c5coc(C(C)(C)C)n5)ccn4)C(=O)[C@H]4CC[C@H](OC(=O)NC5CCOCC5)CC4)(CC2)CC3)cc1C` [Compound 3.11, 4-((4-(2-(tert-Butyl)oxazol-4-yl)pyridin-2-yl)((4-(4-methoxy-3-methylphenyl)bicyclo[2.2.2]octan-1-yl)methyl)carbamoyl) cyclohexyl (tetrahydro-2H-pyran-4-yl)trans-carbamate] registered an EC50 of no more than 10 nM.
